Test in all cases: cell-based
For one test, the target named is hNav1.7 (Homo sapiens, UniProt Q15858). The settings on record: Nav1.7 Use IC50.
The target of another test is hNav1.3 (Homo sapiens, UniProt Q9NY46). Type of test: cell-based. Particulars: Nav1.3 Use IC50.
Another test addresses hNav1.5 (Homo sapiens, UniProt Q14524).

From US9340590B2 (priority 2011, dated 2016) come the findings set out here.

The structures appear in SMILES notation. pIC50: −log10 of the molar value. Where two headings read alike, the source gives them in different places. Positions of bridges follow the written chain, without caps; N, C: chain ends. Non-standard residues stand in square brackets, D forms with d. Residues, ends and D or L forms follow the SMILES beside them. 1Nal = N[C@@H](Cc1cccc2ccccc12)C(=O)O

Chain of hNav1.5 (Q14524 whole entry, looked up): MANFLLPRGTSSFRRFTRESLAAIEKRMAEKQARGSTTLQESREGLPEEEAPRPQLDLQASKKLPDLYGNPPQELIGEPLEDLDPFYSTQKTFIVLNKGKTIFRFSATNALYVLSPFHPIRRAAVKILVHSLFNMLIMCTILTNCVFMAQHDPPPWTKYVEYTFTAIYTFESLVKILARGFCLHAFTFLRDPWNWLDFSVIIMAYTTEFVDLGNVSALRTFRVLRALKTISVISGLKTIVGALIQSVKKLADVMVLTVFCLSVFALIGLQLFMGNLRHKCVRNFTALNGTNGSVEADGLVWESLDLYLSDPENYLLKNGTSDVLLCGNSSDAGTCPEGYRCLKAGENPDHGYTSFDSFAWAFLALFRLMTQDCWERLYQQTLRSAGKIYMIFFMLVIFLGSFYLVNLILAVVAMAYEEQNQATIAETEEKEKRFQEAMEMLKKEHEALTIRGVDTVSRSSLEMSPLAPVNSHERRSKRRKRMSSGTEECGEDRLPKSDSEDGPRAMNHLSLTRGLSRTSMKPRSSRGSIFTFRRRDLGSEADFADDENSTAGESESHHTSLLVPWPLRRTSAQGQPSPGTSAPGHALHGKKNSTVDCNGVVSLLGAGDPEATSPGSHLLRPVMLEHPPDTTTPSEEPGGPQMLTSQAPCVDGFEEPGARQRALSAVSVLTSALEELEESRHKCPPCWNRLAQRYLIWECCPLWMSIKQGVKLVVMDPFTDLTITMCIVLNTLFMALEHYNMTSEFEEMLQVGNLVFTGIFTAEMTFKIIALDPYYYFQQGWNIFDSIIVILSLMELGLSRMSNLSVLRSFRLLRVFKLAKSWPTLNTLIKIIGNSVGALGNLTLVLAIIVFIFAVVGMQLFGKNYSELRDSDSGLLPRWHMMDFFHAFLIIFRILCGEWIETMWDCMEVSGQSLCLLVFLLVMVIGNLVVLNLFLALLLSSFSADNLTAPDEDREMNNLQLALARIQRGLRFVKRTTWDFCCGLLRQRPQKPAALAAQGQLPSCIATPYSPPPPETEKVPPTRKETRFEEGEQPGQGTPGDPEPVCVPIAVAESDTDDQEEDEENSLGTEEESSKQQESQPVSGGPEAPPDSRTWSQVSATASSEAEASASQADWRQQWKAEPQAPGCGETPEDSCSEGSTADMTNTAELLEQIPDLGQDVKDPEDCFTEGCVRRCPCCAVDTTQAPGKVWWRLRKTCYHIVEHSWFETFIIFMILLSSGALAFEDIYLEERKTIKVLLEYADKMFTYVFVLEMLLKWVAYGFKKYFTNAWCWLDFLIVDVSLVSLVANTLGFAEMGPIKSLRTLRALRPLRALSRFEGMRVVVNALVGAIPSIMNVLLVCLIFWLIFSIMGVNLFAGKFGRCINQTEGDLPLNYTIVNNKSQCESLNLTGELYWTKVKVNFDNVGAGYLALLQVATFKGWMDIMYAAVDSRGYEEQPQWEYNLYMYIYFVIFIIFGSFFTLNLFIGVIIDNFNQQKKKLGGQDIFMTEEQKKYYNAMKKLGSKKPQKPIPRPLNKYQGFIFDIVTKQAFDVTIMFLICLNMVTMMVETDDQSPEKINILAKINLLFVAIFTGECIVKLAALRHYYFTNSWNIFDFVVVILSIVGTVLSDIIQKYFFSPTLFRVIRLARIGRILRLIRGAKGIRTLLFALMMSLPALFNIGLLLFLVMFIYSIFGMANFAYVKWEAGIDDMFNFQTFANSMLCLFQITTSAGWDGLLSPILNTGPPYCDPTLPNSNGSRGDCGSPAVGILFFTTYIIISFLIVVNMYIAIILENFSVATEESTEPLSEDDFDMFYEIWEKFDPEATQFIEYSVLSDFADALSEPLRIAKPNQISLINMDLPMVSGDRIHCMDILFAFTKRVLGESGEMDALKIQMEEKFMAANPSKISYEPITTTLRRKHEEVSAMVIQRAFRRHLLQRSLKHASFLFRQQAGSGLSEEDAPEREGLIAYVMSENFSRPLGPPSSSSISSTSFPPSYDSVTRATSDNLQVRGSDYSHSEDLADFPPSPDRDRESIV
Chain of hNav1.7 (Q15858 whole entry, looked up): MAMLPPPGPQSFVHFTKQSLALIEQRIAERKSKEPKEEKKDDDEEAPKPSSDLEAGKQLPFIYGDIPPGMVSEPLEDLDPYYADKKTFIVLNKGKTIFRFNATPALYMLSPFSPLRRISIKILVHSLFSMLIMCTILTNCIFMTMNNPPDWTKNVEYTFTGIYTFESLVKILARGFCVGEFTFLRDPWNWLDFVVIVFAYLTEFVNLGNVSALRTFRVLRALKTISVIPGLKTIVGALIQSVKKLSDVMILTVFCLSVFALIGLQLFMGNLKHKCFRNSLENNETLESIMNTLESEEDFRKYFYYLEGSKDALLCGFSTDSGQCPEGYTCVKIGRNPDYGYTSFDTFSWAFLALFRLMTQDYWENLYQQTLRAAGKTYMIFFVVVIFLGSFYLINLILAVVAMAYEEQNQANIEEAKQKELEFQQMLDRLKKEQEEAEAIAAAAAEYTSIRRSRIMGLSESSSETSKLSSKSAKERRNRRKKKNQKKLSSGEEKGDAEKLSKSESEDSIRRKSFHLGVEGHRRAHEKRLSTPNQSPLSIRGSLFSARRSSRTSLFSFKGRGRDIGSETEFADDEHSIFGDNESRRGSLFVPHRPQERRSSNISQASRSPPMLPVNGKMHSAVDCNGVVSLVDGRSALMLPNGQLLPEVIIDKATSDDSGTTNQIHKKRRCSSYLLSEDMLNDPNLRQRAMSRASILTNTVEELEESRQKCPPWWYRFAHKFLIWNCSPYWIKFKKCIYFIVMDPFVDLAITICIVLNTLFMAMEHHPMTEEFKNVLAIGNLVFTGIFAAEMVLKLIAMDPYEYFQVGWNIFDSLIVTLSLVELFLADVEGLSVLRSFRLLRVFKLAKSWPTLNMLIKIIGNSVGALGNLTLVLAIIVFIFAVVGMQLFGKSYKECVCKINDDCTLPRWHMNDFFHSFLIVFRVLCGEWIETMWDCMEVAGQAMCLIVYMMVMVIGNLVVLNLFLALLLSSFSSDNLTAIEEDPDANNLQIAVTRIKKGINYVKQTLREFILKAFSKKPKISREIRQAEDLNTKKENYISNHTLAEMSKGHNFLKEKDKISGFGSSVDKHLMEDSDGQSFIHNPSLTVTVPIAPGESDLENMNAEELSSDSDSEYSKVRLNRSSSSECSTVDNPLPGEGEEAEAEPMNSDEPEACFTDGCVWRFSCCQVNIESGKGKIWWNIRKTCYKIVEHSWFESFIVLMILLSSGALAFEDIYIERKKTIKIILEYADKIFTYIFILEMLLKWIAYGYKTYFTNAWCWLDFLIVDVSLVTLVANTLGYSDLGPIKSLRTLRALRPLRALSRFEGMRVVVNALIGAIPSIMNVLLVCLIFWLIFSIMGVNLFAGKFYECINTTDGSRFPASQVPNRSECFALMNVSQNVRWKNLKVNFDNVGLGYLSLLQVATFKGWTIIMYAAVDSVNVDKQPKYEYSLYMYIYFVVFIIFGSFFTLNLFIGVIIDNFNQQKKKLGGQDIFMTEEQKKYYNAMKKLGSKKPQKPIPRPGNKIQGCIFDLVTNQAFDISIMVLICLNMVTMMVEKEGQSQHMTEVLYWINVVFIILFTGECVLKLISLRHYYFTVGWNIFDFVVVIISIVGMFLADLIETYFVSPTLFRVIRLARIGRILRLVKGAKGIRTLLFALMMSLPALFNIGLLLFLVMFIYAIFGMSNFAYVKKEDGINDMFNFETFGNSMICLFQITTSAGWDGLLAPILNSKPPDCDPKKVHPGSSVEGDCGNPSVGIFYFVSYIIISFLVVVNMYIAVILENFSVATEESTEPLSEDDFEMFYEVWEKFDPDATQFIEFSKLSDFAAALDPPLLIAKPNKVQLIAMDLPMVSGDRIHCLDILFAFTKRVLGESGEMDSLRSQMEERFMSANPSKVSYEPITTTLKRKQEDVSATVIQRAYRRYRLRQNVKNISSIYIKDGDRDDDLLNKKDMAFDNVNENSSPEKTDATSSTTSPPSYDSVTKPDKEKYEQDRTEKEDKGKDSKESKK

For `CC[C@H](C)[C@@H]1NC(=O)[C@@H]2CSSC[C@@H]3NC(=O)[C@H](C(C)C)NC(=O)[C@H](CC(C)C)NC(=O)[C@H](CC(N)=O)NC(=O)[C@@H]4CCCN4C(=O)[C@H](CCCNC(=N)N)NC(=O)[C@H](CSSC[C@H](NC(=O)[C@@H](N)CC(=O)O)C(=O)N[C@@H](CC(C)C)C(=O)NCC(=O)N[C@@H](C)C(=O)N[C@@H](CCSC)C(=O)N[C@@H](CCCNC(=N)N)C(=O)N[C@@H](CCCCN)C(=O)N2)NC(=O)[C@H](CSSC[C@@H](C(=O)N[C@@H](CCCCN)C(=O)N[C@@H](Cc2ccc(O)cc2)C(=O)N[C@H](C(=O)N[C@@H](Cc2ccccc2)C(N)=O)C(C)C)NC(=O)[C@H](Cc2c[nH]c4ccccc24)NC(=O)[C@H](CCCNC(=N)N)NC(=O)[C@H](Cc2c[nH]cn2)NC(=O)[C@H]([C@@H](C)O)NC(=O)[C@H](CCCNC(=N)N)NC(=O)[C@H](CO)NC3=O)NC(=O)[C@H](CCCCN)NC(=O)[C@H](CC(=O)O)NC(=O)[C@H](CC(N)=O)NC(=O)[C@H](CC(=O)O)NC(=O)[C@@H]2CCCN2C1=O` [[Ala5;Arg28]GpTx-1(1-34)] (H-DCLGAMRKCIPDNDKCCRPNLVCSRTHRWCKYVF-NH2; disulfide 2-17, 9-23, 16-30), the pIC50 against hNav1.7 is 7.11; on hNav1.3, 6.36; at hNav1.5 it was less than 5.00.
Take `CC[C@H](C)[C@@H]1NC(=O)[C@@H]2CSSC[C@@H]3NC(=O)[C@H](C(C)C)NC(=O)[C@H](CC(C)C)NC(=O)[C@H](CC(N)=O)NC(=O)[C@@H]4CCCN4C(=O)[C@H](CCCNC(=N)N)NC(=O)[C@H](CSSC[C@H](NC(=O)[C@@H](N)CC(=O)O)C(=O)N[C@@H](CC(C)C)C(=O)NCC(=O)N[C@@H](C)C(=O)N[C@@H](CCSC)C(=O)N[C@@H](CCCNC(=N)N)C(=O)N[C@@H](CCCCN)C(=O)N2)NC(=O)[C@H](CSSC[C@@H](C(=O)N[C@@H](CCCCN)C(=O)N[C@@H](Cc2c[nH]c4ccccc24)C(=O)N[C@H](C(=O)N[C@@H](Cc2ccccc2)C(N)=O)C(C)C)NC(=O)[C@H](Cc2c[nH]c4ccccc24)NC(=O)[C@H](CCCCN)NC(=O)[C@H](Cc2c[nH]cn2)NC(=O)[C@H]([C@@H](C)O)NC(=O)[C@H](CCCNC(=N)N)NC(=O)[C@H](CO)NC3=O)NC(=O)[C@H](CCCCN)NC(=O)[C@H](CC(=O)O)NC(=O)[C@H](CC(N)=O)NC(=O)[C@H](CC(=O)O)NC(=O)[C@@H]2CCCN2C1=O` [[Ala5;Trp32]GpTx-1(1-34)] (H-DCLGAMRKCIPDNDKCCRPNLVCSRTHKWCKWVF-NH2; disulfide 2-17, 9-23, 16-30): the pIC50 at hNav1.7 was 6.99; against hNav1.3 it was 5.53; against hNav1.5, less than 5.00.
For `CC[C@H](C)[C@@H]1NC(=O)[C@@H]2CSSC[C@@H]3NC(=O)[C@H](C(C)C)NC(=O)[C@H](CC(C)C)NC(=O)[C@H](CC(N)=O)NC(=O)[C@@H]4CCCN4C(=O)[C@H](CCCNC(=N)N)NC(=O)[C@H](CSSC[C@H](NC(=O)[C@@H](N)CC(=O)O)C(=O)N[C@@H](CC(C)C)C(=O)NCC(=O)N[C@@H](C)C(=O)N[C@@H](CCSC)C(=O)N[C@@H](CCCNC(=N)N)C(=O)N[C@@H](CCCCN)C(=O)N2)NC(=O)[C@H](CSSC[C@@H](C(=O)N[C@@H](CCCCN)C(=O)N[C@@H](Cc2ccc(O)cc2)C(=O)N[C@@H](Cc2c[nH]c4ccccc24)C(=O)N[C@@H](Cc2ccccc2)C(N)=O)NC(=O)[C@H](Cc2c[nH]c4ccccc24)NC(=O)[C@H](CCCCN)NC(=O)[C@H](Cc2c[nH]cn2)NC(=O)[C@H]([C@@H](C)O)NC(=O)[C@H](CCCNC(=N)N)NC(=O)[C@H](CO)NC3=O)NC(=O)[C@H](CCCCN)NC(=O)[C@H](CC(=O)O)NC(=O)[C@H](CC(N)=O)NC(=O)[C@H](CC(=O)O)NC(=O)[C@@H]2CCCN2C1=O` [[Ala5;Trp33]GpTx-1(1-34)] (H-DCLGAMRKCIPDNDKCCRPNLVCSRTHKWCKYWF-NH2; disulfide 2-17, 9-23, 16-30), in that order: 7.47, 6.24 and less than 5.00.
For `CC[C@H](C)[C@@H]1NC(=O)[C@@H]2CSSC[C@@H]3NC(=O)[C@H](C(C)C)NC(=O)[C@H](CC(C)C)NC(=O)[C@H](CC(N)=O)NC(=O)[C@@H]4CCCN4C(=O)[C@H](CCCNC(=N)N)NC(=O)[C@H](CSSC[C@H](NC(=O)[C@@H](N)CC(=O)O)C(=O)N[C@@H](CC(C)C)C(=O)NCC(=O)N[C@@H](Cc4ccccc4)C(=O)N[C@@H](CCSC)C(=O)N[C@@H](CCCNC(=N)N)C(=O)N[C@@H](CCCCN)C(=O)N2)NC(=O)[C@H](CSSC[C@@H](C(=O)N[C@@H](CCCCN)C(=O)N[C@@H](Cc2cccc4ccccc24)C(=O)N[C@H](C(=O)N[C@@H](Cc2ccccc2)C(N)=O)C(C)C)NC(=O)[C@H](Cc2c[nH]c4ccccc24)NC(=O)[C@H](CCCNC(=N)N)NC(=O)[C@H](Cc2c[nH]cn2)NC(=O)[C@H]([C@@H](C)O)NC(=O)[C@H](CCCNC(=N)N)NC(=O)[C@H](CO)NC3=O)NC(=O)[C@H](CCCCN)NC(=O)[C@H](CC(=O)O)NC(=O)[C@H](CC(N)=O)NC(=O)[C@H](CC(=O)O)NC(=O)[C@@H]2CCCN2C1=O` [[Arg28;1-Nal32]GpTx-1(1-34)] (H-DCLGFMRKCIPDNDKCCRPNLVCSRTHRWCK[1Nal]VF-NH2; disulfide 2-17, 9-23, 16-30), the pIC50 against hNav1.7 was 8.30; on hNav1.3, 8.22; on hNav1.5, 5.97.
On to `CC[C@H](C)[C@@H]1NC(=O)[C@@H]2CSSC[C@@H]3NC(=O)[C@H](C(C)C)NC(=O)[C@H](CC(C)C)NC(=O)[C@H](CC(N)=O)NC(=O)[C@@H]4CCCN4C(=O)[C@H](CCCNC(=N)N)NC(=O)[C@H](CSSC[C@H](NC(=O)[C@@H](N)CC(=O)O)C(=O)N[C@@H](CC(C)C)C(=O)NCC(=O)N[C@@H](Cc4ccccc4)C(=O)N[C@@H](CCSC)C(=O)N[C@@H](CCCNC(=N)N)C(=O)N[C@@H](CCCCN)C(=O)N2)NC(=O)[C@H](CSSC[C@@H](C(=O)N[C@@H](CCCCN)C(=O)N[C@@H](Cc2ccc(O)cc2)C(=O)N[C@H](C(=O)N[C@@H](Cc2ccccc2)C(N)=O)C(C)C)NC(=O)[C@H](Cc2c[nH]c4ccccc24)NC(=O)[C@H](CCCNC(=N)N)NC(=O)[C@H](Cc2c[nH]cn2)NC(=O)[C@H]([C@@H](C)O)NC(=O)[C@H](CCCNC(=N)N)NC(=O)[C@H](CO)NC3=O)NC(=O)[C@H](CCCCN)NC(=O)[C@H](CC(=O)O)NC(=O)[C@H](CC(N)=O)NC(=O)[C@H](CC(=O)O)NC(=O)[C@@H]2CCCN2C1=O` [[Arg28]GpTx-1(1-34)], for which the pIC50 against hNav1.7 is 8.15; against hNav1.3, 7.92; on hNav1.5 (read-out: Nav1.5 Use IC50), 5.06.
In the case of `CC[C@H](C)[C@@H]1NC(=O)[C@@H]2CSSC[C@@H]3NC(=O)[C@H](C(C)C)NC(=O)[C@H](CC(C)C)NC(=O)[C@H](CC(N)=O)NC(=O)[C@@H]4CCCN4C(=O)[C@H](CCCNC(=N)N)NC(=O)[C@H](CSSC[C@H](NC(=O)[C@@H](N)CC(=O)O)C(=O)N[C@@H](CC(C)C)C(=O)NCC(=O)N[C@@H](Cc4ccccc4)C(=O)N[C@@H](CCSC)C(=O)N[C@@H](CCCNC(=N)N)C(=O)N[C@@H](CCCCN)C(=O)N2)NC(=O)[C@H](CSSC[C@@H](C(=O)N[C@@H](CCCCN)C(=O)N[C@@H](Cc2ccc(O)cc2)C(=O)N[C@@H](CCC(N)=O)C(=O)N[C@@H](Cc2ccccc2)C(N)=O)NC(=O)[C@H](Cc2c[nH]c4ccccc24)NC(=O)[C@H](CCCCN)NC(=O)[C@H](Cc2c[nH]cn2)NC(=O)[C@H]([C@@H](C)O)NC(=O)[C@H](CCCNC(=N)N)NC(=O)[C@H](CO)NC3=O)NC(=O)[C@H](CCCCN)NC(=O)[C@H](CC(=O)O)NC(=O)[C@H](CC(N)=O)NC(=O)[C@H](CC(=O)O)NC(=O)[C@@H]2CCCN2C1=O` [[Gln33]GpTx-1(1-34)] (H-DCLGFMRKCIPDNDKCCRPNLVCSRTHKWCKYQF-NH2; disulfide 2-17, 9-23, 16-30), the figures for the pIC50 on hNav1.7, on hNav1.3 and at hNav1.5 were 8.22, 8.00 and 5.08, respectively.

The pIC50 is the IC50 on a negative log10 scale, so that one unit is a factor of ten.
